According to publication PMC4658182, “The Synthetic Antimicrobial Peptide 19-2.5 Interacts with Heparanase and Heparan Sulfate in Murine and Human Sepsis” (PLoS ONE, 2015):

Tests used:
heparanase [1] = experiment: Plasma heparanase level (ELISA), CLP septic mice; type: in vivo, murine; conditions: CLP-mice (NMRI), 24 h after CLP, peptide i.v. infusion 20 μg/ml, 100 μl/h vs NaCl 0.9%, n = 6 per group, Fig 1A, ***p < 0.0001
Description: (§1) Heparanase levels in human and murine plasma were measured using a commercial ELISA kit (No.: E03H0100, AMS Biotechnology, Oxon, United Kingdom) according to the manufacturer’s instructions. The ELISA´s detection range is 1.0 ng/ml– 5000 ng/ml.
The murine model of polymicrobial sepsis was divided into three steps as described before. Briefly, in a first step 12 NMRI mice underwent a catheterization procedure under general (isoflurane 1% to 2% in oxygen/air mix with a FiO2 of 0.3) and local (0.2 ml lidocaine 2%) anesthesia. A central vein catheter (PE-tube, self-made) was implanted in the jugular vein. After further local infiltration with lidocaine, the neck was closed by single suture. To prevent hypothermia all animals were kept on a heating pad throughout the surgical procedure. Mice were transferred back into the cage to rest for 48h. The i.v.-line was connected to the syringe pump at a rate of 100 μl/h (NaCl 0.9%).
In a second step, general and local anesthesia for cecal ligature and puncture (CLP) was performed as described above. The animal were transferred to the cage and reconnected with the i.v.-line. Depending on the group, peptide 19–2.5 infusion (20 μg/ml, 100 μl/h) or NaCl 0.9% infusion (100 μl/h) was started.
Finally, in a third step all animals were killed 24 h after CLP. […]

heparanase [2] = experiment: Plasma heparanase level (ELISA), human plasma, peptide added ex vivo; type: biochemical; conditions: 20 μg/ml peptide ex vivo, Fig 1B, n.s.
Description: (§2) As described before, we used plasma from 18 adult individuals within 24 hours after presentation with septic shock, according to the ACCP/SCCM definition after written informed consent of patients or their legal representative. Individuals below 18 years were excluded. Furthermore, we used plasma from healthy human donors after written informed consent (n = 10). No personal or identifying information was collected from study participants. All samples are stored in the RWTH centralized Biomaterial Database (RWTH cBMB) of the University Hospital RWTH Aachen. The local ethics committee (University Hospital RWTH Aachen, EK 206_09) approved this study before inclusion of the first individual.
as §1

heparanase [3] = experiment: Plasma heparanase activity, human plasma, peptide added ex vivo; type: biochemical; conditions: 20 μg/ml peptide ex vivo, Fig 3B
Description: as §2
Heparanase activity in human and murine plasma was quantified using the commercial available Heparanase Assay Kit (No.: Ra001-BE-K, AMS Biotechnology, Oxon, United Kingdom) according to the manufacturer’s instructions.

heparanase [4] = experiment: Isothermal titration calorimetry, binding to heparanase; conditions: ITC, 37°C
Description: Isothermal titration calorimetry (ITC) experiments were performed as previously described. Briefly, the binding of peptide 19–2.5 to heparanase or HS-fragments was recorded by measuring the enthalpy change of the reaction at 37°C. For this, a total of 100 μg/ml heparanase (R&D Systems Europe Ltd., Abingdon, United Kingdom) and 200 μg/ml HS-fragments (H7640 Sigma-Aldrich, St. Louis, MO, USA) were dispersed into the calorimetric cell, and 2 mM peptide 19–2.5 was titrated to this dispersion stepwise in 3 μl portions. After exploring experiments, the concentration of HS was 100 μg/ml titrated with 1.5 μl of peptide 19–2.5 (2 mM) 20 times at 37°C.
Fig 5 Isothermal titration calorimetry (ITC). For the ITC experiments, 2 mM peptide 19–2.5 was titrated to this dispersion stepwise in 3 μl portions into (A) 200 μg/ml heparan sulfate-fragments (HS) and (B) 100 μg/ml heparanase (Hep). In each titration, the resulting heat signals P were recorded (peak downwards are exothermic, peaks upwards endothermic reactions) against time (min) and presented in the top parts of Fig 5A and 5B. The integrated enthalpy changes ΔH versus [peptide]:[HS-fragments] (A) and [peptide]:[heparanase] (B) concentration ratios of the single titrations are illustrated in the bottom parts of Fig 5A and 5B.

[5] = cited from earlier work
From the text: Since heparanase is the major mammalian enzyme liberating circulating HS-fragments, we investigated heparanase activity in mice subjected to CLP. […] Additionally, the inhibition of heparanase is lung-protective in murine sepsis. Recently, it was sh ...

[6] = set-up: method as in PMID 22457281; conditions: after incubating HS with peptide 19–2.5; cited from earlier work
[7] = plasma of septic shock patients (n = 18)
[8] = 2 mM peptide in 3 μl portions into 100 μg/ml heparanase, Fig 5B
[9] = heparanase (Fig 5B) compared with HS-fragments (Fig 5A)

What does the source list for “peptide 19–2.5: synthetic antimicrobial peptide 19–2.5 belongs to the class of synthetic anti-lipopolysaccharide peptides (SALP = synthetic anti-LPS peptides)”?
plasma heparanase level, untreated CLP-mice vs peptide-treated (heparanase [1]): significantly higher levels of plasma heparanase compared to mice treated with peptide 19–2.5; plasma heparanase level after ex vivo addition of peptide (heparanase [2]; plasma of healthy human volunteers (n = 10)): did not influence heparanase levels; plasma heparanase level after ex vivo addition of peptide (heparanase [2]; [7]): did not influence heparanase levels; plasma heparanase activity after ex vivo addition of peptide (heparanase [3]; plasma of healthy humans (n = 10), n.s.): did not alter heparanase activity; plasma heparanase activity after ex vivo addition of peptide (heparanase [3]; [7]): significantly lowered heparanase activity; enthalpy change (ΔH) at the beginning of the titration (heparanase [4]; [8]): approximately −25 kJ/mol; heat of reaction on titration to heparanase (heparanase [4]; [8]): exothermic reaction; ΔH value at high peptide concentrations (heparanase [4]; [8]): around 12 kJ/mole; binding constant for heparanase (heparanase [4]; 2 mM peptide into 100 μg/ml heparanase, Fig 5B): does not allow calculating a binding constant; saturation character of ΔH values (heparanase [4]; 2 mM peptide into 100 μg/ml heparanase, no sigmoidal curve, Fig 5B): do not have a saturation character; peptide concentrations at which the processes take place vs HS-fragments (heparanase [4]; [9]): orders of magnitude higher than those for the interaction with HS-fragments; ΔH values at the beginning of the titration vs HS-fragments (heparanase [4]; [9]): much lower than those for the HS-fragments titration; effect on LPS aggregate structure and pro-inflammatory effects [5]: changes the aggregate structure of LPS thereby neutralizing the pro-inflammatory effects of LPS; effect on peptide secondary structure and on HS hydration and sulfation status [6]: alteration of the peptide’s secondary structure and a characteristic change in the hydration and sulfation status of HS
